Test results from ChEMBL document CHEMBL1806351, “Synthesis of C-1 homologues of pancratistatin and their preliminary biological evaluation” (Bioorg Med Chem Lett, 2011).

Tests used:
Format in all cases: functional, cell-based
DU-145 = experiment: Antiproliferative activity against human DU145 cells assessed as viable cells after 48 hrs by MTT assay; conditions: DU-145, 48 h
MCF7 = experiment: Antiproliferative activity against human MCF7 cells assessed as viable cells after 48 hrs by MTT assay; conditions: MCF7, 48 h
NCI-H460 = experiment: Antiproliferative activity against human NCI-H460 cells assessed as viable cells after 48 hrs by MTT assay; conditions: NCI-H460, 48 h
BXPC-3 = experiment: Antiproliferative activity against human BxPC3 cells assessed as viable cells after 48 hrs by MTT assay; conditions: BXPC-3, 48 h

Row | Compound | IC50 (DU-145) | IC50 (MCF7) | IC50 (NCI-H460) | IC50 (BXPC-3)
1 | O=C1N[C@@H]2C(=C[C@H](O)[C@@H](O)[C@H]2O)c2cc3c(c(O)c21)OCO3 [NARCICLASINE] | 50 nM | 40 nM | 40 nM | 50 nM
2 | O=C1N[C@H]2[C@H](O)[C@H](O)[C@@H](O)[C@H](CO)[C@@H]2c2cc3c(c(O)c21)OCO3 | 90 nM | 240 nM | 90 nM | 220 nM
3 | O=C1N[C@H]2[C@H](O)[C@H](O)[C@@H](O)[C@H](CO)[C@@H]2c2cc3c(cc21)OCO3 | 1100 nM | 860 nM | 400 nM | 770 nM
4 | CC(=O)OC[C@H]1[C@H](O)[C@@H](O)[C@@H](O)[C@@H]2NC(=O)c3cc4c(cc3[C@@H]12)OCO4 | 720 nM | 1810 nM | 530 nM | 340 nM
5 | CC(=O)OC[C@H]1[C@H](O)[C@@H](O)[C@@H](O)[C@@H]2NC(=O)c3c(cc4c(c3O)OCO4)[C@@H]12 | 60 nM | 520 nM | 70 nM | 70 nM
